In the supplement of paper PMC11208160:

Assay: recombinant UMI read abundance after kanamycin selection (control-corrected) (log10(CPM+1)); higher = more efficient recombination; extreme values may be limits of the assay; sequences stand for … in AGTGCAGAGAAAATCGGCCAGTTTTCTCTGCCTGCAGTCCGCATGCCGTGGGACCCCTTGGGTTCTAACCTGTTGCCTAGATTTATGCAGCGGACTGCCTTTCTCCCAAAGTGATAAACCGG…AGGTTGGTTTCACT; site = the 11-nt donor
Procedure: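 Pooled E. coli donor-specificity screen for the IS621 bridge recombinase. Each library member carries a reprogrammed 11-nt donor and a full-length LE bridge RNA expressed in cis from the natural promoter, with a paired donor-binding loop (8-nt LDG + 4-nt RDG) and a target-binding loop fixed to T5. It is co-electroporated with a T5 target plasmid; recombinase is induced with 0.07 mM IPTG and recombinants are selected on kanamycin. UMIs are counted as CPM, averaged over two biological replicates and corrected by the unselected control. Molecule = full bridge RNA written as DNA, built from the T5 scaffold: LDG = donor specificity nt 1-8, RDG = reverse complement of nt 8-11.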
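Further: IS621 bridge recombinase in Escherichia coli cells against a fixed T5 target plasmid.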

| Sequence | recombinant UMI read abundance (log10) |
| --- | --- |
| AATCGTCCATGGACCGGTTTTCCCGGTAATCCGTATTTGAT (site AAGCGTCCTAT) | 0.432 |
| AATCGTCCATGGACCGGTTTTCCCGGTAATCCGTATTTGAT (site AATCGTCCTAT) | 0.306 |
| AATCTACCATGGACCGGTTTTCCCGGTAATCCGTATTTGAG (site AATCTACCTCT) | 0.0184 |
| AATCTCGCATGGACCGGTTTTCCCGGTAATCCGTATTTGCG (site AATCTCGCTCG) | 0.0146 |
| AATGCCTCATGGACCGGTTTTCCCGGTAATCCGTATTTGAG (site AATGCCTCTCT) | 0.693 |
| AATGTATCATGGACCGGTTTTCCCGGTAATCCGTATTTGCT (site AATGTAACTAG) | 0.796 |
| AATGTATCATGGACCGGTTTTCCCGGTAATCCGTATTTGCT (site AATGTACCTAG) | 0.03 |
| AATGTATCATGGACCGGTTTTCCCGGTAATCCGTATTTGCT (site AATGTAGCTAG) | 0 |
| AATGTATCATGGACCGGTTTTCCCGGTAATCCGTATTTGCT (site AATGTATCTAG) | 2.56 |
| AATTAGGCATGGACCGGTTTTCCCGGTAATCCGTATTTGGA (site AATTAAGCTTC) | 0.133 |
| AATTAGGCATGGACCGGTTTTCCCGGTAATCCGTATTTGGA (site AATTACGCTTC) | 0.011 |
| AATTAGGCATGGACCGGTTTTCCCGGTAATCCGTATTTGGA (site AATTAGGCTTC) | 0.746 |
| AATTAGGCATGGACCGGTTTTCCCGGTAATCCGTATTTGGA (site AATTATGCTTC) | 0.317 |
| AATTATTCATGGACCGGTTTTCCCGGTAATCCGTATTTGGA (site AATTATACTTC) | 0.554 |
| AATTATTCATGGACCGGTTTTCCCGGTAATCCGTATTTGGA (site AATTATCCTTC) | 0.553 |
| AATTATTCATGGACCGGTTTTCCCGGTAATCCGTATTTGGA (site AATTATGCTTC) | 0.0186 |
| AATTATTCATGGACCGGTTTTCCCGGTAATCCGTATTTGGA (site AATTATTCTTC) | 2.28 |
| AATTCGTCATGGACCGGTTTTCCCGGTAATCCGTATTTGAA (site AATTCGTCTTT) | 0.559 |
| AATTGTGCATGGACCGGTTTTCCCGGTAATCCGTATTTGGA (site AATTATGCTTC) | 0.773 |

| Sequence | recombinant UMI read abundance (log10) |
| --- | --- |
| AATTGTGCATGGACCGGTTTTCCCGGTAATCCGTATTTGGA (site AATTCTGCTTC) | 0.00901 |
| AATTGTGCATGGACCGGTTTTCCCGGTAATCCGTATTTGGA (site AATTGTGCTTC) | 0.895 |
| AATTGTGCATGGACCGGTTTTCCCGGTAATCCGTATTTGGA (site AATTTTGCTTC) | 0.0805 |
| AATTTAGCATGGACCGGTTTTCCCGGTAATCCGTATTTGTC (site AATTTAGCTGA) | 0.582 |
| AATTTTGCATGGACCGGTTTTCCCGGTAATCCGTATTTGGA (site AATTATGCTTC) | 0.473 |
| AATTTTGCATGGACCGGTTTTCCCGGTAATCCGTATTTGGA (site AATTCTGCTTC) | 0.118 |
| AATTTTGCATGGACCGGTTTTCCCGGTAATCCGTATTTGGA (site AATTGTGCTTC) | 0.154 |
| AATTTTGCATGGACCGGTTTTCCCGGTAATCCGTATTTGGA (site AATTTTGCTTC) | 1 |
| ACAAAGACATGGACCGGTTTTCCCGGTAATCCGTATTTGCA (site ACAAAGACTTG) | 3.1 |
| ACAAAGACATGGACCGGTTTTCCCGGTAATCCGTATTTGCA (site AGGAAGACTTG) | 2.33 |
| ACAAAGCCATGGACCGGTTTTCCCGGTAATCCGTATTTGGC (site ACAAAGCCTGC) | 0 |
| ACAAGAACATGGACCGGTTTTCCCGGTAATCCGTATTTGTC (site ACAAGAACTGA) | 1.75 |
| ACAAGAACATGGACCGGTTTTCCCGGTAATCCGTATTTGTC (site ACACGAACTGA) | 0.00498 |
| ACAAGAACATGGACCGGTTTTCCCGGTAATCCGTATTTGTC (site ACAGGAACTGA) | 0 |
| ACAAGAACATGGACCGGTTTTCCCGGTAATCCGTATTTGTC (site ACATGAACTGA) | 0 |
| ACAAGGACATGGACCGGTTTTCCCGGTAATCCGTATTTGCG (site ACAAGGACTCG) | 2.42 |
| ACAAGGGCATGGACCGGTTTTCCCGGTAATCCGTATTTGAC (site ACAAGGGCTGT) | 2.69 |
| ACAAGTGCATGGACCGGTTTTCCCGGTAATCCGTATTTGAC (site ACAAGTGCTGT) | 2.62 |
| ACAAGTTCATGGACCGGTTTTCCCGGTAATCCGTATTTGTC (site ACAAGTTCTGA) | 0 |

| Sequence | recombinant UMI read abundance (log10) |
| --- | --- |
| ACAATATCATGGACCGGTTTTCCCGGTAATCCGTATTTGCA (site ACAATATCTTG) | 2.85 |
| ACAATATCATGGACCGGTTTTCCCGGTAATCCGTATTTGCA (site ACACTATCTTG) | 1.83 |
| ACAATATCATGGACCGGTTTTCCCGGTAATCCGTATTTGCA (site ACAGTATCTTG) | 2.35 |
| ACAATATCATGGACCGGTTTTCCCGGTAATCCGTATTTGCA (site ACATTATCTTG) | 1.81 |
| ACAATCTCATGGACCGGTTTTCCCGGTAATCCGTATTTGCA (site ACAATCTCTTG) | 2.51 |
| ACAATCTCATGGACCGGTTTTCCCGGTAATCCGTATTTGCA (site ACAGTATCTTG) | 1.54 |
| ACACACCCATGGACCGGTTTTCCCGGTAATCCGTATTTGTG (site ACACACCCTCA) | 0.012 |
| ACACATCCATGGACCGGTTTTCCCGGTAATCCGTATTTGAA (site ACACATCCTAT) | 0.229 |
| ACACATCCATGGACCGGTTTTCCCGGTAATCCGTATTTGAA (site ACACATCCTCT) | 0 |
| ACACATCCATGGACCGGTTTTCCCGGTAATCCGTATTTGAA (site ACACATCCTGT) | 0 |
| ACACATCCATGGACCGGTTTTCCCGGTAATCCGTATTTGAA (site ACACATCCTTT) | 1.72 |
| ACACATCCATGGACCGGTTTTCCCGGTAATCCGTATTTGAG (site ACACATCCTAT) | 0.549 |
| ACACATCCATGGACCGGTTTTCCCGGTAATCCGTATTTGAG (site ACACATCCTCT) | 0.668 |
| ACACATCCATGGACCGGTTTTCCCGGTAATCCGTATTTGAG (site ACACATCCTGT) | 0 |
| ACACATCCATGGACCGGTTTTCCCGGTAATCCGTATTTGAG (site ACACATCCTTT) | 0.381 |
| ACACCTACATGGACCGGTTTTCCCGGTAATCCGTATTTGTG (site ACAACTACTCA) | 0.0154 |
| ACACCTACATGGACCGGTTTTCCCGGTAATCCGTATTTGTG (site ACACCTACTCA) | 0.165 |
| ACACCTACATGGACCGGTTTTCCCGGTAATCCGTATTTGTG (site ACAGCTACTCA) | 0.0267 |
| ACACCTACATGGACCGGTTTTCCCGGTAATCCGTATTTGTG (site ACATCTACTCA) | 0.028 |
